In turn, `*/C=C(/*)c1cccc[c]1[Ge]([CH3])([CH3])[CH3]` (repeat unit) had a glass transition temperature of 180.00 °C.
`*C(=O)OCCCSCCCCCCSCCCOC(=O)c1ccc(N2C(=O)c3ccc(*)cc3C2=O)cc1` (repeat unit) showed a glass transition temperature of 31.00 °C.
As for `*CC#CC#CCOc1ccc(C(=O)OCCN(CCOC(=O)c2ccc(O*)cc2)c2ccc(/N=N/c3ccc([N+](=O)[O-])cc3)cc2)cc1` (repeat unit), the glass transition temperature was found to be 100.00 °C.
In turn, `*CCCCCCCCCCOc1ccc(/C=C/c2ccc(OCCCCCCCCCCOP(=O)(O*)OCCCCCCCCCCOc3ccc(/N=N/c4ccc(C#N)cc4)cc3)cc2)cc1` (repeat unit) registered a glass transition temperature of 60.00 °C.
Under `*CCCCCCCCCCOc1ccc(/C=C/c2ccc(OCCCCCCCCCCOP(=O)(O*)OCCCCCCCCCCOc3ccc(/N=N/c4ccc([N+](=O)[O-])cc4)cc3)cc2)cc1` (repeat unit) stands 50.00 °C; under `*CCCCCCCCCCOc1ccc(/C=C/c2ccc(OCCCCCCCCCCOP(=O)(O*)OCCCCCCCCCCOc3ccc(/N=N/c4ccccc4)cc3)cc2)cc1` (repeat unit), 55.00 °C.
With `*CCCCCCCCCOc1ccc(CCc2ccc(O*)cc2C)cc1` (repeat unit) the figure was -1.10 °C.
With `*CCCCCCCCOC(=O)c1ccc(C(=O)O*)cc1` (repeat unit) the figure was 45.00 °C; with `*CCCCCCCCOC(=O)c1ccc2cc(C(=O)O*)ccc2c1` (repeat unit), 60.00 °C.
`*CCCCCCCCOC(=O)c1cccc(C(=O)O*)c1` (repeat unit): the glass transition temperature is -9.00 °C.
With `*CCCCCCCCOc1ccc(CCc2ccc(O*)cc2C)cc1` (repeat unit) the figure was -12.00 °C.
In turn, `*CCCCCCCOC(=O)c1ccc(C(=O)O*)cc1` (repeat unit) came in with a glass transition temperature of -1.00 °C.
Under `*CCCCCCCOc1ccc(-c2ccc(O*)c3ccccc23)c2ccccc12` (repeat unit) stands 129.50 °C; under `*CCCCCCCOc1ccc(CCc2ccc(O*)cc2C)cc1` (repeat unit), 6.50 °C; under `*CCCCCCOC(=O)C(CCCCCBr)C(=O)OCCCCCCOc1ccc(-n2on2-c2ccc(O*)cc2)cc1` (repeat unit), 7.00 °C.
With `*CCCCCCOC(=O)C(CCCCCCCCCCBr)C(=O)OCCCCCCOc1ccc(-n2on2-c2ccc(O*)cc2)cc1` (repeat unit) the figure was 16.00 °C; with `*CCCCCCOC(=O)C(CCCCCCP(=O)(O)O)C(=O)OCCCCCCOc1ccc(-n2on2-c2ccc(O*)cc2)cc1` (repeat unit), 21.00 °C; with `*CCCCCCOC(=O)OCCCCCCCCOC(=O)OCCCCCCOc1ccc(Oc2ccc(O*)cc2)cc1` (repeat unit), -17.00 °C.
With `*CCCCCCOC(=O)OCCCCCCN1C(=O)c2ccc(-c3ccc(-c4ccc5c(c4)C(=O)N(*)C5=O)cc3)cc2C1=O` (repeat unit) the figure was 73.00 °C.
Regarding `*CCCCCCOC(=O)OCCCCCOC(=O)OCCCCCCOc1ccc(C(=O)c2ccc(O*)cc2)cc1` (repeat unit), the glass transition temperature was -0.20 °C.
Under `*CCCCCCOC(=O)c1ccc(C(=O)O*)cc1` (repeat unit) stands 13.00 °C.
Under `*CCCCCCOC(=O)c1cccc(C(=O)O*)c1` (repeat unit) stands 5.50 °C; under `*CCCCCCOc1ccc(/C=C/c2ccc(O*)cc2)cc1` (repeat unit), 76.00 °C.
With `*CCCCCCOc1ccc(/C=C2\CC/C(=C\c3ccc(OCCCCCCOP(=O)(O*)OCC)c(OC)c3)C2=O)cc1OC` (repeat unit) the figure was 75.00 °C; with `*CCCCCOC(=O)O*` (repeat unit), -42.9 °C; with `*CCCCCOC(=O)OCCCCCN1C(=O)c2ccc(C(=O)c3ccc4c(c3)C(=O)N(*)C4=O)cc2C1=O` (repeat unit), 77.00 °C.
Turning to `*CCCCCOC(=O)c1ccc(-c2ccc(C(=O)O*)cc2)cc1` (repeat unit), the glass transition temperature worked out at 47.50 °C.
Under `*CCCCCOC(=O)c1ccc(C(=O)O*)cc1` (repeat unit) stands 16.00 °C; under `*CCCCCOC(=O)c1ccc2cc(C(=O)O*)ccc2c1` (repeat unit), 58.50 °C; under `*CCCCCOc1ccc(-c2ccc(O*)c3ccccc23)c2ccccc12` (repeat unit), 151.00 °C.
Under `*CCCCOC(=O)C1CCC(C(=O)O*)CC1` (repeat unit) stands -10.50 °C.
Compound `*CCCCOC(=O)OCCCCN1C(=O)c2ccc(-c3ccc4c(c3)C(=O)N(*)C4=O)cc2C1=O` (repeat unit) had a glass transition temperature of 104.00 °C.
Under `*CCCCOC(=O)c1ccc(-c2ccc(C(=O)O*)cc2)cc1` (repeat unit) stands 70.00 °C; under `*CCCCOCCCCOCCCCOC(=O)c1ccc(/N=C/c2ccc(/C=N/c3ccc(C(=O)O*)cc3)cc2)cc1` (repeat unit), -13.20 °C.
With `*CCCCOc1ccc(-c2ccc(O*)c3ccccc23)c2ccccc12` (repeat unit) the figure was 130.00 °C.
Under `*CCCCOc1ccc(/C=C2\CC/C(=C\c3ccc(OCCCCOP(=O)(O*)OCC)c(OC)c3)C2=O)cc1OC` (repeat unit) stands 79.00 °C; under `*CCCCOc1ccc(CCc2ccc(O*)cc2C)cc1` (repeat unit), 24.90 °C; under `*CCCCOc1ccc(OCCCCc2nnc(-c3ccc(-c4nnc(*)o4)cc3)o2)c(C)c1` (repeat unit), 129.00 °C.
Compound `*CCCOC(=O)C1CCC(C(=O)O*)CC1` (repeat unit) came in with a glass transition temperature of -6.00 °C.
Under `*CCCOC(=O)OCCCCCCOC(=O)OCCCN1C(=O)c2ccc(C(=O)c3ccc4c(c3)C(=O)N(*)C4=O)cc2C1=O` (repeat unit) stands 70.00 °C.
With `*CCCOC(=O)c1ccc2cc(C(=O)O*)ccc2c1` (repeat unit) the figure was 88.00 °C.
Turning to `*CCCOc1ccc(-c2ccc(O*)c3ccccc23)c2ccccc12` (repeat unit), the glass transition temperature stood at 182.00 °C.
With `*CCCS(=O)(=O)CCCCS(=O)(=O)CCCOC(=O)O*` (repeat unit) the figure was 43.00 °C; with `*CCCS(=O)(=O)CCCCS(=O)(=O)CCCOC(=O)c1ccccc1C(=O)O*` (repeat unit), 49.00 °C.
With `*CCN(CCOC(=O)c1cccc(C(=O)O*)c1)c1ccccc1` (repeat unit) the figure was 60.00 °C; with `*OC(=O)OCCCCOC(=O)OC1COC2C(*)COC12` (repeat unit), 49.00 °C; with `*OC1CCC(OC(=O)OCCCCCCCOC(*)=O)CC1` (repeat unit), -5.00 °C.
With `*OC1CCC(OC(=O)OCCCCCOC(*)=O)CC1` (repeat unit) the figure was -5.00 °C.
`*OC1CCC(OC(=O)OCCCCOC(*)=O)CC1` (repeat unit) displayed a glass transition temperature of 30.00 °C.
With `*Oc1ccc(C(=O)OCCCCCOC(=O)c2ccc(*)cc2)cc1` (repeat unit) the figure was 26.00 °C; with `*c1ccc(C(=O)OCCCCCCCCCCOc2ccc(/C=C3\CCCC/C(=C\c4ccc(OCCCCCCCCCCOC(=O)c5ccc(-c6nnc(*)o6)cc5)cc4)C3=O)cc2)cc1` (repeat unit), 74.00 °C; with `*c1ccc(C(=O)OCCCCCCCCCOC(=O)c2ccc(-c3nnc(*)s3)cc2)cc1` (repeat unit), 72.00 °C.
Under `*c1ccc(C(=O)OCCCCCCCCOc2ccc(/C=C3\CC/C(=C\c4ccc(OCCCCCCCCOC(=O)c5ccc(-c6nnc(*)o6)cc5)cc4)C3=O)cc2)cc1` (repeat unit) stands 99.00 °C; under `*c1ccc(C(=O)OCCCCCCOc2ccc(/C=C3\CCC/C(=C\c4ccc(OCCCCCCOC(=O)c5ccc(-c6nnc(*)o6)cc5)cc4)C3=O)cc2)cc1` (repeat unit), 71.00 °C; under `*c1ccc(C(c2ccc(N3C(=O)c4ccc(OCCN(CCOc5ccc6c(c5)C(=O)N(*)C6=O)c5ccc(/C=C/c6ccc([N+](=O)[O-])cc6)cc5)cc4C3=O)cc2)(C(F)(F)F)C(F)(F)F)cc1` (repeat unit), 180.70 °C.
With `*c1ccc(Cc2ccc(N3C(=O)c4ccc(OCCN(CCOc5ccc6c(c5)C(=O)N(*)C6=O)c5ccc(/C=C/c6ccc([N+](=O)[O-])cc6)cc5)cc4C3=O)cc2)cc1` (repeat unit) the figure was 160.70 °C.
`*c1ccc(Oc2ccc(-c3csc(/N=C/c4ccc(OCCCCCCOc5ccc(/C=N/c6nc(*)cs6)cc5)cc4)n3)cc2)cc1` (repeat unit) yielded a glass transition temperature of 117.00 °C.
With `*c1ccc(Oc2ccc(C(=O)c3ccc(Oc4ccc(-c5c6c(c(*)c7ccccc57)C(=O)N(c5ccccc5-c5ccccc5)C6=O)cc4)cc3)cc2)cc1` (repeat unit) the figure was 245.00 °C; with `*c1ccc(Oc2ccc(C(=O)c3ccc(Oc4ccc(-c5c6c(c(*)c7ccccc57)C(=O)N(c5ccccc5C(F)(F)F)C6=O)cc4)cc3)cc2)cc1` (repeat unit), 260.00 °C; with `*c1ccc(Oc2ccc(C(=O)c3ccc(Oc4ccc(-c5nc(-c6cccc(-c7nc(*)c(-c8ccccc8)[nH]7)c6)[nH]c5-c5ccccc5)cc4)cc3)cc2)cc1` (repeat unit), 282.00 °C.
`*c1ccc(Oc2ccc(C(=O)c3ccc(Oc4ccc(C(=O)c5ccc(Oc6ccc(-c7cc(*)n(-c8ccccc8)n7)cc6)cc5)cc4)cc3)cc2)cc1` (repeat unit) displayed a glass transition temperature of 190.00 °C.
Under `*c1ccc(Oc2ccc(C(=O)c3ccc(Oc4ccc(C(=O)c5ccc(Oc6ccc(-c7nc(-c8ccc(-c9nc(*)c(-c%10ccccc%10)[nH]9)cc8)[nH]c7-c7ccccc7)cc6)cc5)cc4)cc3)cc2)cc1` (repeat unit) stands 245.00 °C.

Source of the values: the PolyMetriX glass transition set.
